Several values for one entry are separate records, joined by “and”; a condition that tells them apart may be missing. Equal entries are not always repeated. Blank lines part the entries; values can stand above or below the molecule they belong to. Activity calls are given as the source filed them.
Assays:
[1] = HeLa cell cytotoxicity, dose response, cytotoxicity control for MgcRacGAP inhibitor project (AID 624300); assay type: functional
[2] = target: T1, Rac GTPase-activating protein 1 (Homo sapiens, UniProt Q9H0H5); assay: MgcRacGAP GTPase-activating activity inhibitors, confirmation, biochemical, ADP Hunter fluorescence, primary and confirmatory (AID 624330); assay type: functional
T1 sequence (Q9H0H5 whole entry): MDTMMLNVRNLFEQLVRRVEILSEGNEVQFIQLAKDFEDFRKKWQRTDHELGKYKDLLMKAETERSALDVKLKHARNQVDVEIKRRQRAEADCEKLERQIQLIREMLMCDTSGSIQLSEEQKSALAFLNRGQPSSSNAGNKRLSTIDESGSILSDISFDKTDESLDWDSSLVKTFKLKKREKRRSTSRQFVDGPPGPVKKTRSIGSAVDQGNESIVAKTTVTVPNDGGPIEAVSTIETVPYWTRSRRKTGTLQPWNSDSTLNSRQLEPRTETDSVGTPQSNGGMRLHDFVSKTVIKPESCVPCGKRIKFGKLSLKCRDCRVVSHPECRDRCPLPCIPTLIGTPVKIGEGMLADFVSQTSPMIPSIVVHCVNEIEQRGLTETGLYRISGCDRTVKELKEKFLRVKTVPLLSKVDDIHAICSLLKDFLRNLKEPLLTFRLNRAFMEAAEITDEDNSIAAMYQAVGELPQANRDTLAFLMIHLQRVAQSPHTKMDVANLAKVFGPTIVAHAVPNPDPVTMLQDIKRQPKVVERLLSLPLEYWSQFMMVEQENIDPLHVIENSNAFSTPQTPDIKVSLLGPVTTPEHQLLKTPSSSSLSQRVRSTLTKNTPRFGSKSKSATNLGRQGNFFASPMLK

[3] = target: T2, Mannose-6-phosphate isomerase (Homo sapiens, UniProt P34949); assay: human PMI inhibitors, high substrate, primary screen, biochemical, fluorescence intensity, high mannose 6-phosphate (AID 1220)
T2 sequence (P34949 whole entry): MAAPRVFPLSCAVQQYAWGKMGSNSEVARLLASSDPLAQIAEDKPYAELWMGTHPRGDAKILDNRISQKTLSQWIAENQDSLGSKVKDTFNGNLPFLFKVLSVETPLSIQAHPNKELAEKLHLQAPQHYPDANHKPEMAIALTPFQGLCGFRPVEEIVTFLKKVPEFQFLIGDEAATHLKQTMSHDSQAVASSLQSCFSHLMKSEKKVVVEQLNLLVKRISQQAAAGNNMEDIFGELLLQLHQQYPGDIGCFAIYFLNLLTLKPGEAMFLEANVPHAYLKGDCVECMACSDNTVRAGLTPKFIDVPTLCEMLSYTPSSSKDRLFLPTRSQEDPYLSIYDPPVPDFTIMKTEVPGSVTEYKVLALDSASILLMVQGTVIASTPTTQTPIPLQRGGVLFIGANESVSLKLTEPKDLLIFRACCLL

[4] = target: Glucose-6-phosphate 1-dehydrogenase (Homo sapiens, UniProt P11413); assay: human G6PD enzyme inhibitors, dose response, selectivity assay for P. falciparum G6PD inhibitor project, biochemical, fluorescence (AID 504792); assay type: functional
Glucose-6-phosphate 1-dehydrogenase, sequence (P11413 whole entry, the tested form may be a part): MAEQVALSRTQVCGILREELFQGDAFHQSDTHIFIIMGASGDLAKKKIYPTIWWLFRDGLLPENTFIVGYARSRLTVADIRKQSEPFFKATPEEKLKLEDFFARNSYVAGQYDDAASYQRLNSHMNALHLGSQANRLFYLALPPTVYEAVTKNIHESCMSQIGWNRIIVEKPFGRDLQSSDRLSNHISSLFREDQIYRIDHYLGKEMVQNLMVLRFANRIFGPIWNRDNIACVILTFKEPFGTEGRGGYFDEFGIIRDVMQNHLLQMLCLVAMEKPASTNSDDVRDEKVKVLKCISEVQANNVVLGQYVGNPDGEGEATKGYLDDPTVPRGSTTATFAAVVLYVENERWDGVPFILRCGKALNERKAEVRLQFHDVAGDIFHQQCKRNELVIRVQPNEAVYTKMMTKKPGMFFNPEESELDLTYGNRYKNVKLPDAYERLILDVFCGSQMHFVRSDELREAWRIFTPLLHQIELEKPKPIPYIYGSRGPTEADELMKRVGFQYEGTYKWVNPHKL

[5] = target: Hepatocyte nuclear factor 4-alpha (Homo sapiens, UniProt P41235); assay type: functional, cell-based;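 further: biochemical luminescence-based dose-response counterscreen measuring inhibition of HNF4 dimerization, run alongside a screen for blockers of ABHD5–perilipin-5 interaction; split luciferase complementation of HNF4 fusion proteins in cell lysate measuring dimerization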
Hepatocyte nuclear factor 4-alpha, sequence (P41235 whole entry, the tested form may be a part): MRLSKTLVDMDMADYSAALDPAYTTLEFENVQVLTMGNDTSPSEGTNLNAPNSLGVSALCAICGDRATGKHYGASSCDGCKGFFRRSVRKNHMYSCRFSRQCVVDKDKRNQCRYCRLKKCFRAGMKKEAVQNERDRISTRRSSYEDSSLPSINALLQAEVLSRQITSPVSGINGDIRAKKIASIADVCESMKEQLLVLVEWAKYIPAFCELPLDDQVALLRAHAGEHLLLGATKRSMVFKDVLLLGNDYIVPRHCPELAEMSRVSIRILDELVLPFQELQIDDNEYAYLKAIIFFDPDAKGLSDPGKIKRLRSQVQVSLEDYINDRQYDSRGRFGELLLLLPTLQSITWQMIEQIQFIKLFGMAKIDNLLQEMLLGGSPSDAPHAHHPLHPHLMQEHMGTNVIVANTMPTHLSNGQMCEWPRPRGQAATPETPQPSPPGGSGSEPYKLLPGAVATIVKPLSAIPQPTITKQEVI

[6] = target: T3, Low molecular weight phosphotyrosine protein phosphatase (Homo sapiens, UniProt P24666); assay type: functional; conditions: read-out: IC50_Mean;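 further: Dose-response confirmation assay measuring inhibition of LMPTP enzyme activity by fluorescence intensity read-out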
T3 sequence (P24666 whole entry): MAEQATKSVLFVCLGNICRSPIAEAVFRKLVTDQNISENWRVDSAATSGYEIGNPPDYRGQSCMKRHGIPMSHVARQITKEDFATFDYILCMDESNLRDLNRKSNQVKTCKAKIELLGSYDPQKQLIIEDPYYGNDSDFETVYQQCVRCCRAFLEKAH

[7] = target: T4, Probable nicotinate-nucleotide adenylyltransferase (Staphylococcus aureus (strain N315), UniProt P65502); assay type: functional, Staphylococcus aureus subsp. aureus N315;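 on IC50 Mean: confirmatory dose-response retesting of NadD inhibitor hits first found in an ultra-high-throughput screen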
[8] = target: T4, Probable nicotinate-nucleotide adenylyltransferase; assay type: functional, Staphylococcus aureus subsp. aureus N315; conditions: read-out: IC50_Mean
[9] = cells; assay type: functional, cell-based
[10] = HEp-2 cell cytotoxicity, dose response, cytotoxicity control for RSV inhibitor project, HTS (AID 2410); assay type: functional; conditions: human respiratory syncytial virus
[11] = target: T5, Nuclear receptor subfamily 0 group B member 1 (Homo sapiens, UniProt P51843); assay type: functional, cell-based;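 further: HEK293T cells transfected with SF-1 and DAX-1 plus StAR promoter luciferase reporter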
T5 sequence (P51843 whole entry): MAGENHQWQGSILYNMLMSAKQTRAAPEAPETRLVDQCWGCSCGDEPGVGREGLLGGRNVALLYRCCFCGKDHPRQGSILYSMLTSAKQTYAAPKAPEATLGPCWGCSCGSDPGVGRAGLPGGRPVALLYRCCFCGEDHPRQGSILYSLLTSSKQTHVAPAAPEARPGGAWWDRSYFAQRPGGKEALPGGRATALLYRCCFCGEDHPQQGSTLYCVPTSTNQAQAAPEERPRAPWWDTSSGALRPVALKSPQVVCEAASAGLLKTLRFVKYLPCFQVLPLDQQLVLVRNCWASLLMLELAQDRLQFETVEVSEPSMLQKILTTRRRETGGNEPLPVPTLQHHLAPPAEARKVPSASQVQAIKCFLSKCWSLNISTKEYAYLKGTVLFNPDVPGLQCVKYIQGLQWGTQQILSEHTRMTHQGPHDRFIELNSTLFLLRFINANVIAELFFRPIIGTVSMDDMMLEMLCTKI

[12] = target: T6, Scavenger receptor class B member 1 (Mus musculus, UniProt Q61009); assay: inhibitors of SR-BI-mediated HDL uptake, dose response, cell-based, ldlA[mSR-BI] CHO, DiI fluorescence, dry powder, set 10 (AID 624029); assay type: functional
T6 sequence (Q61009 whole entry): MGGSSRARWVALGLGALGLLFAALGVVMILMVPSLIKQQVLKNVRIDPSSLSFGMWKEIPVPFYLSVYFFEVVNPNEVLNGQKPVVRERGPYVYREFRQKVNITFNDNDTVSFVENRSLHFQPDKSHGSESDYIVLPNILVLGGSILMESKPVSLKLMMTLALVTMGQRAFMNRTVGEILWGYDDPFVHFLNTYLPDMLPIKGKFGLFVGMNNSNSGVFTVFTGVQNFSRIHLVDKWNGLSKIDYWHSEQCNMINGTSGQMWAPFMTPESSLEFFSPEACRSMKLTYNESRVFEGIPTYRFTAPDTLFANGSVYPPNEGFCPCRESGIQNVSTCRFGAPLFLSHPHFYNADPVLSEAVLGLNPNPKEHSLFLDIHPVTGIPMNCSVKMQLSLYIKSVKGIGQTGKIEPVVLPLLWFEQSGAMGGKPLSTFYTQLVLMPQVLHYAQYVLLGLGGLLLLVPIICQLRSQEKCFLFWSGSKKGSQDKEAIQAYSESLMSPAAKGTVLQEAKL

[13] = target: T6, Scavenger receptor class B member 1; assay: inhibitors of SR-BI dependent HDL uptake, dose response, ldlA[mSR-BI] CHO cells, fluorescence plate reader, dry powder, set 9 (AID 623880); assay type: functional, cell-based
[14] = miR-122 activators in hepatoma reporter cells, dose response, cell-based, Huh7 psiCHECK-miR122, Renilla luciferase, cherry-picked (AID 651956); assay type: functional;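 further: huh7 hepatoma cells stably carrying a psiCHECK-2 miR-122 sensor plasmid; renilla luciferase signal reporting endogenous miR-122 activity after 48 h compound exposure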

SMILES: CC1=CC(C)(C)Nc2ccc(OC(=O)CN3C(=O)c4cccc5cccc(c45)C3=O)cc21
- IC50 [3]: 33 µM (active)
- IC50 [4]: 64.2 µM (inactive)
- IC50 [5]: 6.95 µM (active)

SMILES: Cn1ncc(Cl)c1C(=O)Nc1ccc2c(c1)CCC2
- IC50 [9]: > 67.5 µM (inactive)
- CC50 [10]: 41.5 µM (active)
- IC50 [11]: > 67.5 µM (inactive)

SMILES: CCOc1ccc(NC(=S)N(CCCN2CCCC2)Cc2cccn2Cc2ccc(Cl)cc2)cc1
- AC50 [14]: 46.1 µM (active)

Now from value to molecule, other results behind:

- IC50 [2]: 133 µM (active)
SMILES: CCC(CC)NCc1ccc2c(c1)c1ccccc1n2CC
- CC50 [1]: 100 µM (active)

- IC50 [6]: 80 µM (inactive)
- IC50 [7]: 19.5 µM (active)
- IC50 [8]: 41.2 µM (active)
SMILES: COc1ccccc1/C=C/C=N/NC(=O)c1cc(-c2ccco2)[nH]n1

- AC50 [12]: 163 nM (active) and 121 nM (active)
- AC50 [13]: 0.0589 µM (active)
SMILES: CC(C)NC(=O)Nc1ccc2c(c1)C(=O)N([C@H](C)CO)C[C@@H](C)[C@H](CN(C)S(=O)(=O)c1ccc(Cl)cc1)O2

- IC50 [5]: 2.23 µM (active)
SMILES: O=C(NC1CCCCC1)C(c1ccnc2ccccc12)n1c(=O)c(-c2ccco2)nc2ccccc21 (stereo not given)

From ChEMBL document CHEMBL1201862, “PubChem BioAssay data set” (2004)
